Measurements taken from ChEMBL document CHEMBL3627644, “2-Arylquinazolin-4(3H)-ones: A new class of α-glucosidase inhibitors” (Bioorg Med Chem, 2015).
pIC50, pKi: −log10 of the molar value.

Key:
[1] = Inhibition of Saccharomyces cerevisiae alpha-glucosidase for 15 mins by multiplate reader method using 0.7 mM p-nitrophenyl-alpha-D-glucopyranoside as substrate; conditions: for pIC50: read-out: IC50
[2] = Competitive inhibition of Saccharomyces cerevisiae alpha-glucosidase by multiplate reader method using p-nitrophenyl-alpha-D-glucopyranoside as substrate
[3] = Mixed inhibition of Saccharomyces cerevisiae alpha-glucosidase by multiplate reader method using p-nitrophenyl-alpha-D-glucopyranoside as substrate
[4] = Non-Competitive inhibition of Saccharomyces cerevisiae alpha-glucosidase by multiplate reader method using p-nitrophenyl-alpha-D-glucopyranoside as substrate

SMILES	pIC50 [1]	also measured
O=c1[nH]c(-c2ccc([N+](=O)[O-])cc2)nc2ccccc12	4.70	IC50 [1]: Not Active
CN(C)c1ccc(-c2nc(O)c3ccccc3n2)cc1	5.56	–
COc1ccc(-c2nc(O)c3ccccc3n2)cc1OC	6.07	pKi [2]: 6.55
O=c1[nH]c(-c2ccccc2O)nc2ccccc12	4.98	–
O=c1[nH]c(-c2ccc(O)cc2)nc2ccccc12	4.98	–
Cc1ccc(-c2nc3ccccc3c(=O)[nH]2)cc1	4.12	–
O=c1[nH]c(-c2cccc(O)c2)nc2ccccc12	–	IC50 [1]: Not Active
O=c1[nH]c(-c2cccc([N+](=O)[O-])c2)nc2ccccc12	4.74	–
COc1ccc(-c2nc3ccccc3c(=O)[nH]2)cc1O	5.72	–
O=c1[nH]c(-c2c(Cl)cccc2Cl)nc2ccccc12	4.17	–
COc1cc(-c2nc3ccccc3c(=O)[nH]2)cc(OC)c1OC	3.93	–
CCOc1cc(-c2nc3ccccc3c(=O)[nH]2)ccc1O	6.52	pKi [2]: 6.37
O=c1[nH]c(-c2ccc(O)c(O)c2)nc2ccccc12	5.82	–
O=c1[nH]c(-c2cc(O)ccc2O)nc2ccccc12	5.63	–
COc1cccc(-c2nc3ccccc3c(=O)[nH]2)c1O	4.83	–
CCOc1ccccc1-c1nc2ccccc2c(=O)[nH]1	6.24	pKi [3]: 5.18
COc1ccc(O)c(-c2nc3ccccc3c(=O)[nH]2)c1	5.94	–
O=c1[nH]c(-c2ccccc2Cl)nc2ccccc12	5.89	–
O=c1[nH]c(-c2c(O)cccc2Br)nc2ccccc12	5.01	–
CCOc1ccc(-c2nc3ccccc3c(=O)[nH]2)cc1	5.49	–
COc1ccc(-c2nc(O)c3ccccc3n2)cc1	6.40	pKi [4]: 6.60
O=c1[nH]c(-c2cc(Cl)ccc2Cl)nc2ccccc12	4.79	–
C[C@H]1O[C@H](O[C@H]2[C@H](O)[C@@H](O)[C@@H](O[C@H]3[C@H](O)[C@@H](O)C(O)O[C@@H]3CO)O[C@@H]2CO)[C@H](O)[C@@H](O)[C@@H]1N[C@H]1C=C(CO)[C@@H](O)[C@H](O)[C@H]1O (stereo partly drawn) [ACARBOSE]	–	pKi [2]: 3.13
